One assay addresses T1, DP Receptor (Homo sapiens, UniProt Q13258).
T1 construct: expressed in transfected cells; host or cells: Chinese Hamster Ovary (CHO) cells, membranes
T1 sequence (Q13258 1-359): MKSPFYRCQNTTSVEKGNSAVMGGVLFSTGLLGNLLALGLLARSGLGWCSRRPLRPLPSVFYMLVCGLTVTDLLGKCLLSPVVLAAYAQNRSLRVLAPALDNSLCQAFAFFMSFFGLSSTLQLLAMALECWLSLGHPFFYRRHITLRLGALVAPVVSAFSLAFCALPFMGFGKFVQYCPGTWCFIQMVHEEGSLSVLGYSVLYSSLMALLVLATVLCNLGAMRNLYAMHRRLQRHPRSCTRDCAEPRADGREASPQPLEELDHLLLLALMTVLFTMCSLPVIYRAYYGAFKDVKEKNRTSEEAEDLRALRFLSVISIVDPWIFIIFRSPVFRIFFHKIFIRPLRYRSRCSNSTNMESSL
Kind of assay: Radioligand binding assay, [3H]PGD2, CHO/DP cell membranes. The note with it: [3H]PGD2 displacement, membranes of CHO cells transfected with DP. The method, then:
(§1) Chinese Hamster Ovary cells were transfected with CRTH2 or DP receptors (CHO/CRTH2 and CHO/DP) and were maintained in culture in a humidified atmosphere at 37° C. (5% CO2) in Minimum Essential Medium (MEM) supplemented with 10% foetal bovine serum, 2 mM glutamine, and 1 mg ml^−1 active G418. The cells were passaged every 2-3 days. For radioligand binding assay, cells were prepared in triple-layer flasks or in 175 cm^2 square flasks (for membrane preparation). For calcium mobilisation assay, cells were grown in a 96 well plate 24h prior to the assay at a density of 80,000 cells per well.
(§2) Membranes were prepared either from CHO/CRTH2 and CHO/DP cells, or from platelets (as a source of TP receptors). CHO cells grown to confluency were washed with PBS and detached using a Versene solution (15 ml per flask). When the cells were grown in 175 cm^2 square flask, they were collected by scrapping in PBS. The cell suspensions were centrifuged (1,700 rpm, 10 min, 4° C.) and resuspended in 15 ml of buffer (1×HBSS, supplemented with 10 mM HEPES, pH 7.3). Cell suspensions were then homogenised using an Ultra Turrax at setting 4-6 for 20 s. The homogenate was centrifuged at 1,700 rpm for 10 min and the supernatant was collected and centrifuged at 20,000 rpm for 1 h at 4° C. The resulting pellet was resuspended in buffer and stored at −80° C. in aliquots of 200-500 μl. The protein concentration was determined by the method of Bradford (1976), using bovine serum albumin as standard. The platelets were washed by centrifugation at 600×g for 10 min and resuspended in ice-cold assay buffer (10 mM Tris-HCl, pH 7.4, 5 mM Glucose, 120 mM NaCl, 10 μM indomethacin) and directly centrifuged at 20,000 rpm for 30 min at 4° C. […]
(§3) [^3H]PGD2 (160 Ci/mmol) binding experiments were performed on membranes prepared as described above. […] The Unifilter plates were dried at room temperature for at least 1 h and the radioactivity retained on the filters was determined on a Beta Trilux counter (PerkinElmer Life Sciences), following addition of 40 μl of Optiphase Hi-Safe 3 (Wallac) liquid scintillation. […]

A further assay has as its target T2, CRTH2 Receptor (Homo sapiens, UniProt Q9Y5Y4).
T2 construct: expressed in transfected cells; host or cells: Chinese Hamster Ovary (CHO) cells, membranes
T2 sequence (Q9Y5Y4 1-395): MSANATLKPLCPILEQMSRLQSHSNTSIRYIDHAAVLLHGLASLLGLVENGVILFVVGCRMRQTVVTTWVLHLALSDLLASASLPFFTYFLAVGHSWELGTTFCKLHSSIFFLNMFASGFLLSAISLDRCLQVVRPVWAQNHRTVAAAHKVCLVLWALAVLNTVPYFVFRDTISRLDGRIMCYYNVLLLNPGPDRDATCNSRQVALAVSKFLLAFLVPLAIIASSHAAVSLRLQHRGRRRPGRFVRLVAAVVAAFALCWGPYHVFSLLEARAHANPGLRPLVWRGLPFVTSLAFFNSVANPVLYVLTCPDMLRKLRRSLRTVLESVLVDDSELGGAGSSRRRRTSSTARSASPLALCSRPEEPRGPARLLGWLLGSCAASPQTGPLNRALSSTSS
The assay is described as follows: Radioligand binding assay, [3H]PGD2, CHO/CRTH2 cell membranes. The note with it: [3H]PGD2 displacement, membranes of CHO cells transfected with CRTH2. The procedure: as §1, §2, §3

Structures are written as SMILES.

As for `Cc1ccc(S(=O)(=O)n2cccc2Cc2c(C)n(CC(=O)O)c3ccc(F)cc23)cc1` [Compound 2, {5-Fluoro-2-methyl-3-[1-(toluene-4-sulfonyl)-1H-pyrrol-2-ylmethyl]-indol-1-yl}-acetic acid], the Ki was found to be 1800 nM on DP Receptor and 0.2 nM at CRTH2 Receptor.
Take `Cc1c(Cc2cccn2S(=O)(=O)c2ccccc2)c2cc(F)ccc2n1CC(=O)O` [Compound 1, [3-(1-Benzenesulfonyl-1H-pyrrol-2-ylmethyl)-5-fluoro-2-methyl-indol-1-yl]-acetic acid]: the Ki at DP Receptor was 9200 nM; at CRTH2 Receptor, 1 nM.
Regarding `Cc1c(Cc2cccn2S(=O)(=O)c2ccc(F)cc2F)c2cc(F)ccc2n1CC(=O)O` [Compound 3, {3-[1-(2,4-Difluoro-benzenesulfonyl)-1H-pyrrol-2-ylmethyl]-5-fluoro-2-methyl-indol-1-yl}-acetic acid], the Ki on DP Receptor came to 8000 nM; at CRTH2 Receptor, 2 nM.

As a reminder, the Ki is a measure of affinity in units of concentration, obtained from inhibition or displacement. Higher therefore signals weaker binding.

These data come from patent US8044088B2, “1-acetic acid-indole derivatives with PGD2 antagonist activity” (Oxagen Limited, priority 2005, dated 2011).
